This is an account of results in BindingDB's records for doi:10.1016/j.bmcl.2009.08.023 (Roche Palo Alto, 2009).

This experiment addresses Genome polyprotein (Hepatitis C virus genotype 1b (isolate Con1), UniProt Q9WMX2). The experiment can be described thus: Inhibition of […] 1b con1 NS5B polymerase assessed as [3H]UTP incorporation into acid insoluble RNA product.

The structures appear in SMILES notation.

Chain of Genome polyprotein (Q9WMX2 2420-3010 limits assumed): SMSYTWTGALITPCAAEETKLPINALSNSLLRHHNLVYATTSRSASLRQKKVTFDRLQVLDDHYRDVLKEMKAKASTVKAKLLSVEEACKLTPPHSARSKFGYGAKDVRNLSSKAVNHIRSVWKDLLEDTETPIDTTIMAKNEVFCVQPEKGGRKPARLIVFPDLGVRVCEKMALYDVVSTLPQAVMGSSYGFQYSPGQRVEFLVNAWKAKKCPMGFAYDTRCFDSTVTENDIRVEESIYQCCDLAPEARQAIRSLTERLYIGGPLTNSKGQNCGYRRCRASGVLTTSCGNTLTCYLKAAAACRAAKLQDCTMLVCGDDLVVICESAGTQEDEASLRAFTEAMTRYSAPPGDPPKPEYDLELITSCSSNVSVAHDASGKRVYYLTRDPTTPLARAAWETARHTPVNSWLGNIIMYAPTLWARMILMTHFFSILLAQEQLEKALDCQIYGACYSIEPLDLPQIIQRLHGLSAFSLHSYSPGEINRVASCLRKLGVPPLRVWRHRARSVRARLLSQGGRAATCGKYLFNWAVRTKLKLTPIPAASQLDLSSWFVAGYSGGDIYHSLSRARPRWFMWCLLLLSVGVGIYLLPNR

Regarding `CC(C)(C)[C@H]1C(=O)C(C2=Nc3ccc(NS(C)(=O)=O)cc3S(=O)(=O)C2)C(=O)N1Cc1ccccc1` (stereo partly drawn) [N-[3-((S)-1-Benzyl-5-tert-butyl-4-hydroxy-2-oxo-2,5-dihydro-1H-pyrrol-3-yl)-1,1-dioxo-1,4-dihydro-1lambda*6*-benzo[1,4]thiazin-7-yl]-methanesulfonamide], the half-maximal inhibitory concentration (IC50) stood at 8 nM.
For the compound `CC(=O)C1C(C2C(=O)[C@H](C(C)(C)C)N(Cc3ccc(F)cc3)C2=O)=Nc2ccc(NS(C)(=O)=O)cc2S1(=O)=O` (stereo partly drawn) [N-{2-Acetyl-3-[(S)-5-tert-butyl-1-(4-fluoro-benzyl)-4-hydroxy-2-oxo-2,5-dihydro-1H-pyrrol-3-yl]-1,1-dioxo-1,4-dihydro-1lambda*6*-benzo[1,4]thiazin-7-yl}-methanesulfonamide], the IC50 stood at 4 nM.
On to `CC(C)(C)[C@H]1C(=O)C(C2=Nc3ccc(NS(C)(=O)=O)cc3S(=O)(=O)C2)C(=O)N1Cc1ccc(F)cc1F` (stereo partly drawn) [N-{3-[(S)-5-tert-Butyl-1-(2,4-difluoro-benzyl)-4-hydroxy-2-oxo-2,5-dihydro-1H-pyrrol-3-yl]-1,1-dioxo-1,4-dihydro-1lambda*6*-benzo[1,4]thiazin-7-yl}-methanesulfonamide], for which the IC50 is 13 nM.
Consider `CC(C)(C)CCN1C(=O)C(C2=Nc3ccc(NS(C)(=O)=O)cc3S(=O)(=O)C2)C(=O)[C@@H]1C(C)(C)C` (stereo partly drawn) [N-{3-[(S)-5-tert-Butyl-1-(3,3-dimethyl-butyl)-4-hydroxy-2-oxo-2,5-dihydro-1H-pyrrol-3-yl]-1,1-dioxo-1,4-dihydro-1lambda*6*-benzo[1,4]thiazin-7-yl}-methanesulfonamide], for which the 50% inhibitory concentration (IC50) stood at 8 nM.
With `CC(C)(C)[C@H]1C(=O)C(C2=Nc3ccc(NS(C)(=O)=O)cc3S(=O)(=O)C2)C(=O)N1Cc1ccc(F)c(Cl)c1` (stereo partly drawn) [N-{3-[(S)-5-tert-Butyl-1-(3-chloro-4-fluoro-benzyl)-4-hydroxy-2-oxo-2,5-dihydro-1H-pyrrol-3-yl]-1,1-dioxo-1,4-dihydro-1lambda*6*-benzo[1,4]thiazin-7-yl}-methanesulfonamide] the figure was 5 nM.
`COc1cc(CN2C(=O)C(C3=Nc4ccc(NS(C)(=O)=O)cc4S(=O)(=O)C3)C(=O)[C@@H]2C(C)(C)C)ccc1F` (stereo partly drawn) [N-{3-[(S)-5-tert-Butyl-1-(4-fluoro-3-methoxy-benzyl)-4-hydroxy-2-oxo-2,5-dihydro-1H-pyrrol-3-yl]-1,1-dioxo-1,4-dihydro-1lambda*6*-benzo[1,4]thiazin-7-yl}-methanesulfonamide]: the IC50 is 4 nM.
With `CC(C)CCN1C(=O)C(C2=Nc3ccc(NS(C)(=O)=O)cc3S(=O)(=O)C2)C(=O)[C@@H]1C(C)(C)C` (stereo partly drawn) [N-{3-[(S)-5-tert-Butyl-4-hydroxy-1-(3-methyl-butyl)-2-oxo-2,5-dihydro-1H-pyrrol-3-yl]-1,1-dioxo-1,4-dihydro-1lambda*6*-benzo[1,4]thiazin-7-yl}-methanesulfonamide] the figure was 5 nM.

Broadly, the IC50 is the midpoint of a concentration-inhibition curve.
